Entries after “also recorded” stand apart in the source; their conditions may differ.
Assays:
[1] = system: rewarding effects of morphine; settings: Table 11, Suzuki et al., 2000; cited from earlier work
[2] = system: medial forebrain bundle self-stimulation in rats; settings: doses 5.6, 10 mg/kg, Hillhouse et al., 2014; cited from earlier work
patients with depression = settings: oral; Non Patent Literatures 15 and 16; cited from earlier work
Morphine Seizures = settings: Not blocked by naloxone; Kolesnikov et al., 1997; cited from earlier work
[3] = system: development of drug tolerance to ethanol; settings: tilt-plane test, Khanna et al., 1993; cited from earlier work
Control C57/B6 mice = assay: Conditioned place preference test (dependence test) in control mice; settings: control mice, 10 mg/kg
Protocol: 15-minute habituation was performed for 3 days. Then, 30-minute conditioning was performed on day 4 to day 10, and a behavioral evaluation test was performed on day 11. Saline was injected on day 5, day 7, and day 9. […] In each of the groups, the injection was performed three times, i.e., on day 4, day 6, and day 8. Saline means a group injected with saline.
The administration of an agent was performed by the same methods as the methods described in Example 2.
The place preference test was performed using a conditioned place preference test apparatus (BrainScienceIdea Co., Ltd., Osaka, Japan). The analysis of the results of the place preference test was performed by one-way analysis of variance (one-way ANOVA), followed by a least significant difference test (LSD test). Data are presented as the mean plus minus standard error of the mean (n=9 or 10 mice/group). *p<0.05 and **p<0.01 indicate significant differences as compared to a group injected with saline.

[4] = system: medial forebrain bundle self-stimulation in rats; assay: Intracranial self-stimulation (ICSS), frequency-rate procedure; settings: for M50, Test, mean log M50 frequency (SEM) / Threshold (T0), Test, mean log T0 frequency (SEM) / M50, Baseline, mean log M50 frequency (SEM) / Threshold (T0), Baseline, mean log T0 frequency (SEM): 10 rats
[5] = system: morphine withdrawal signs in rats; assay: Naloxone-precipitated withdrawal from subchronic morphine; format: in vivo; settings: 0.25 mg/kg i.p. before naloxone 1 mg/kg SC, morphine 10 mg/kg SC b.i.d.
Protocol: Forty (40) male Wistar rats served as test subjects in this study. Animals were pair housed with unrestricted access to rodent chow and water (SOP ROD.03.01, SOP ROD.04.01, SOP ROD.18). […] All experimental activity occurring during the animals' light cycle. All animal use procedures were performed in accordance with the principles of the Canadian Council on Animal Care (CCAC).
Forty (40) male Wistar rats were assigned to 5 groups of N=8 rats per group. Group A was dosed with saline vehicle (Sal; subcutaneous (SC) route) twice daily (approx. 08:00±1 h and 18:00±1 h) for 12 days. […] This treatment regimen was designed to induce opioid dependence (Erami et al., 2012). […] On days 9 and 12, rats were tested for naloxone precipitated withdrawal. According to a cross-over design (see Table 4: Treatment Groups), all rats in each group received either acute saline, or naloxone hydrochloride (1 mg/kg; dose volume 2 ml/kg) injection by the SC route, 5 minutes prior to behavioral testing. […] Lofexidine doses are based on literature values (e.g. Shearman et al., 1979). Immediately after vehicle or naloxone injection, rats were transferred to activity chambers for 30 minutes where the animals were visually assessed for somatic signs associated with opioid withdrawal (e.g. writhes, chews, ptosis, WDS, shakes, tremor, penile grooming, body weight change; see Higgins and Sellers, 1994). Simultaneously, the activity pattern (distance travelled, rearing) of each rat was automatically recorded.
Locomotor activity. Spontaneous activity in the rats was measured with the automated Med Associates activity test chamber for 30 minutes with 10-minute time bins. The tracking arena was 17″W×17″L×12″H, sensor bars are secured 1″ above the floor to track distance travelled, and a second set of sensor bars are placed ˜5″ above the floor to measure vertical movement and rearing activity. The parameters set on the tracking software were as follows: resolution—50 milliseconds (ms), box size—4 beams, resting delay—500 ms, and ambulatory trigger—2 (SOP ROD.25). […]

[6] = 3 mg/kg i.p. 2 hours prior to test session
[7] = 10 mg/kg i.p. 2 hours prior to test session
[8] = 30 mg/kg i.p. 2 hours prior to test session
[9] = baseline session before dosing on the 3 mg/kg test day
[10] = baseline session before dosing on the 10 mg/kg test day
[11] = baseline session before dosing on the 30 mg/kg test day

## CNC1(c2ccccc2Cl)CCCCC1=O (racemic) [RS(+/−)-ketamine]
[1]
  Morphine CPP, dose blocking the rewarding effects of morphine: 10 mg/kg
[2]
  ICSS, anhedonia: 5.6, 10 anhedonia
Patients with depression
  effective oral doses in patients with depression: 0.5 mg/kg
Morphine Seizures
  Morphine Seizures, dose: 0.3 mg/kg
[3]
  Ethanol Tolerance, dose blocking development of tolerance: 1 - tilt-plane test mg/kg
Control C57/B6 mice
  CPP score (conditioned place preference test): significantly increased the CPP score

## COC(=O)[C@H]1[C@@H](OC(=O)c2ccccc2)C[C@@H]2CC[C@H]1N2C [Cocaine, cocaine]
[4]; rats, 10 mg/kg
  ICSS frequency-rate response curve: shifts the frequency curve to the left

## N[C@@]1(c2ccccc2Cl)CCC[C@@H](O)C1=O [R-hydroxynorketamine]
[4]; [6]
  M50, Test, mean log M50 frequency (SEM): 2.00 (0.01) log/Hz
  Threshold (T0), Test, mean log T0 frequency (SEM): 1.92 (0.02) log/Hz
[4]; [7]
  M50, Test, mean log M50 frequency (SEM): 2.00 (0.01) log/Hz
  Threshold (T0), Test, mean log T0 frequency (SEM): 1.90 (0.02) log/Hz
[4]; [8]
  M50, Test, mean log M50 frequency (SEM): 1.99 (0.02) log/Hz
  Threshold (T0), Test, mean log T0 frequency (SEM): 1.91 (0.03) log/Hz
[4]; [9]
  M50, Baseline, mean log M50 frequency (SEM): 2.00 (0.02) log/Hz
  Threshold (T0), Baseline, mean log T0 frequency (SEM): 1.89 (0.02) log/Hz
[4]; [10]
  M50, Baseline, mean log M50 frequency (SEM): 1.98 (0.01) log/Hz
  Threshold (T0), Baseline, mean log T0 frequency (SEM): 1.89 (0.02) log/Hz
[4]; [11]
  M50, Baseline, mean log M50 frequency (SEM): 1.99 (0.02) log/Hz
  Threshold (T0), Baseline, mean log T0 frequency (SEM): 1.90 (0.02) log/Hz
[4]; rats, 3, 10 or 30 mg/kg i.p. 2 hours prior to test session, vs saline vehicle
  ICSS frequency-rate response curve: did not alter the frequency-response function

## CC(Oc1c(Cl)cccc1Cl)C1=NCCN1 (stereo not drawn) [lofexidine, Lofexidine]
[5]
  overall morphine withdrawal scores (naloxone-precipitated withdrawal signs): significantly attenuated the naloxone-induced withdrawal signs; also recorded: effective
